One data set concerns the target Cholinesterase (Equus caballus, UniProt P81908).
Data set [1] has as its target Acetylcholinesterase (Electrophorus electricus, UniProt O42275).
Description: Inhibition of electric eel AChE using acetylthiocholine chloride as substrate preincubated for 15 mins by Ellman's method
Data set [2] in a line: Antioxidant activity assessed as hydrogen peroxide radical scavenging activity at 12.5 uM after 10 hrs by horseradish peroxidase assay. In kind it is functional.
Data set [3] is described as follows: Antioxidant activity assessed as hydrogen peroxide radical scavenging activity at 25 uM after 10 hrs by horseradish peroxidase assay. In kind it is functional.
Data set [4] can be described thus: Antioxidant activity assessed as hydrogen peroxide radical scavenging activity at 20 to 100 uM after 10 hrs by horseradish peroxidase assay. It is filed as functional.
Data set [5] is described as follows: Antioxidant activity assessed as pyrogallol red dye bleaching-induced peroxynitrite scavenging activity up to 62.5 uM relative to ebselen. In kind it is functional.
Data set [6] deals with Acetylcholinesterase (Homo sapiens, UniProt P22303). In words: Inhibition of human AChE using acetylthiocholine chloride as substrate preincubated for 15 mins by Ellman's method. Background: In Ellman's method for cholinesterases, released thiocholine reacts with DTNB.
Data set [7] in a line: Cytotoxicity against human HSC assessed as cell viability at 5 to 10 uM after 24 hrs by MTT assay.

The IC50 is the midpoint of a concentration-inhibition curve.

Activity calls are given as the source filed them. No cut-off for these calls is given here.

Chain of Acetylcholinesterase (Electrophorus electricus, UniProt O42275) (O42275 whole entry): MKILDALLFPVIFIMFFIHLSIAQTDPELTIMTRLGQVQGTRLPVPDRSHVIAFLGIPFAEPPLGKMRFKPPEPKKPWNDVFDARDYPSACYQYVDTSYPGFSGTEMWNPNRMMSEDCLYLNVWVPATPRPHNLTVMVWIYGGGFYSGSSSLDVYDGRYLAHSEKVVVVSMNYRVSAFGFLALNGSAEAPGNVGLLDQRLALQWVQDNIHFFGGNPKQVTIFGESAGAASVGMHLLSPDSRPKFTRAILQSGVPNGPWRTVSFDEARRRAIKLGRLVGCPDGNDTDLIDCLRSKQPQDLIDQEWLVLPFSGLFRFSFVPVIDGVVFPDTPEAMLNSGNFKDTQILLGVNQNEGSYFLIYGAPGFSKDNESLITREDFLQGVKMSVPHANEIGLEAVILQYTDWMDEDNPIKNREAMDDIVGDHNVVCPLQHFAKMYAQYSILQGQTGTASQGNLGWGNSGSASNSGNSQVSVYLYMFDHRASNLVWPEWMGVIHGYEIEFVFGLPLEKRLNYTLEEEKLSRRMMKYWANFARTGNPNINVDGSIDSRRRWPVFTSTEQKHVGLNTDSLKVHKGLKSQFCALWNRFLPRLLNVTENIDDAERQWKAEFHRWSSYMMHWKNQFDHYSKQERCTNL
Chain of Cholinesterase (P81908 whole entry): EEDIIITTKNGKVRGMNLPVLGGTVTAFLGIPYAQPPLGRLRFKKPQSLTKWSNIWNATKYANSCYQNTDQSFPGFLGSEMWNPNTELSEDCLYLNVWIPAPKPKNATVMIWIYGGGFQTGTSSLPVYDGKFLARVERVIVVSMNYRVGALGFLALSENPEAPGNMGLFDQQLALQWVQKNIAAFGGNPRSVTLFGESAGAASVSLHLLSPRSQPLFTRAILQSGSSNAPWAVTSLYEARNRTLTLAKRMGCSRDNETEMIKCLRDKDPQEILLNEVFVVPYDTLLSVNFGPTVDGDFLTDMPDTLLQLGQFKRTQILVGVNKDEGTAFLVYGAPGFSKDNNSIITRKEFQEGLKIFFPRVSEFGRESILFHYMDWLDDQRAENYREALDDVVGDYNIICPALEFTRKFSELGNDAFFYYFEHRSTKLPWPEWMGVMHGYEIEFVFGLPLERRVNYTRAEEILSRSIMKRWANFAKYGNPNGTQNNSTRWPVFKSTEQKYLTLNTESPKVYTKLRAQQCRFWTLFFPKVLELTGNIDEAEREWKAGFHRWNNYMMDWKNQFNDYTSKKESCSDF
Chain of Acetylcholinesterase (Homo sapiens, UniProt P22303) (P22303 whole entry): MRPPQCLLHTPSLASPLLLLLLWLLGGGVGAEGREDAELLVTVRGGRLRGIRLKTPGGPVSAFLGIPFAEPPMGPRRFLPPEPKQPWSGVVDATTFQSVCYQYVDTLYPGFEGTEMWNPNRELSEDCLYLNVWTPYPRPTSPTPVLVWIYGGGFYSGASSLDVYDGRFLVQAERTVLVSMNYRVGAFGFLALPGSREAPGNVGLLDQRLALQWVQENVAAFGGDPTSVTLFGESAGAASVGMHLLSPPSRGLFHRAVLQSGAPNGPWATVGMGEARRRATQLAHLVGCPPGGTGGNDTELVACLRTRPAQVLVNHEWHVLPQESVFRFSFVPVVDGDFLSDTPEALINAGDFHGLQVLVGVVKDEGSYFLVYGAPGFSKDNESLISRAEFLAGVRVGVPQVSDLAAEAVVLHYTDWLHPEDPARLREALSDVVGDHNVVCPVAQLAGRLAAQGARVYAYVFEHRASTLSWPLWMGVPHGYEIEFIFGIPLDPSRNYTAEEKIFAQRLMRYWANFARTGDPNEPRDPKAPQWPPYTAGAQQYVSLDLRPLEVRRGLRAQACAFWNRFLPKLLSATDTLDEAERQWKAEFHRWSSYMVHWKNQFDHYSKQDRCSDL

With `O=c1c2ccccc2[se]n1CCCCCNc1c2c(nc3ccccc13)CCCC2`, the IC50 was 4.52 nM at Cholinesterase and 70.8 nM against Acetylcholinesterase [1].

Take `O=c1c2ccccc2[se]n1-c1ccccc1`: the outcome in data set [2] and in data set [4] was Active. The Activity in data set [3] is 89.7%.

`O=c1c2ccccc2[se]n1CCCCCCCCCNc1c2c(nc3ccccc13)CCCC2`: the values for the IC50 against Cholinesterase and at Acetylcholinesterase [1] were 25.8 nM and 32 nM, respectively.

With `O=c1c2ccccc2[se]n1CCCCCCNc1c2c(nc3ccccc13)CCCC2`, the outcome in data set [2] and in data set [4] was Active. Moreover, the Activity in data set [3] turned out to be 70%. For the same compound, the Ratio in data set [5] worked out at 1.17. Moreover, the IC50 worked out at 19.5 nM against Acetylcholinesterase [6], 4.37 nM on Cholinesterase and 6.32 nM on Acetylcholinesterase [1].

Turning to `COc1cc2[se]n(CCCCCCNc3c4c(nc5ccccc35)CCCC4)c(=O)c2cc1OC`, the results for the Activity entry in data set [7] and in data set [3] were “Non-toxic” and 83.7%, respectively. In addition, the outcome in data set [2] and in data set [4] was Active. In addition, in data set [5], the Ratio worked out at 1.26. Also, the IC50 against Acetylcholinesterase [6] is 15.1 nM; against Cholinesterase, 2.8 nM; on Acetylcholinesterase [1], 2.55 nM.

`O=c1c2ccccc2[se]n1CCCCNc1c2c(nc3ccccc13)CCCC2`: the values for the IC50 at Cholinesterase and on Acetylcholinesterase [1] were 4.94 nM and 152 nM, respectively.

Consider `O=c1c2ccccc2[se]n1CCCCCCCNc1c2c(nc3ccccc13)CCCC2`, for which the IC50 against Cholinesterase is 14 nM; at Acetylcholinesterase [1], 26.5 nM.

Consider `O=c1c2ccccc2[se]n1CCCNc1c2c(nc3ccccc13)CCCC2`, for which the results for the IC50 against Cholinesterase and against Acetylcholinesterase [1] were 28.5 nM and 423 nM, respectively.

With `c1ccc2c(NCCCCCCCNc3c4c(nc5ccccc35)CCCC4)c3c(nc2c1)CCCC3`, the IC50 is 4.08 nM on Cholinesterase and 0.17 nM at Acetylcholinesterase [1].

Turning to `O=c1c2ccccc2[se]n1CCNc1c2c(nc3ccccc13)CCCC2`, the IC50 was found to be 38.9 nM against Cholinesterase and 657 nM against Acetylcholinesterase [1].

For the compound `O=c1c2ccccc2[se]n1CCCCCCCCNc1c2c(nc3ccccc13)CCCC2`, the IC50 was 16.6 nM against Cholinesterase and 24.1 nM against Acetylcholinesterase [1].

Source of the values: ChEMBL document CHEMBL3091394, “Novel tacrine-ebselen hybrids with improved cholinesterase inhibitory, hydrogen peroxide and peroxynitrite scavenging activity” (Bioorg Med Chem Lett, 2013).
